Measured values taken from PMC6753678, “Fueling Open Innovation for Malaria Transmission-Blocking Drugs: Hundreds of Molecules Targeting Early Parasite Mosquito Stages” (Frontiers in Microbiology, 2019).
Like-named read-outs stand apart in the source and are kept apart here.

What was measured:
HepG2 cells = assay: HepG2 cytotoxicity assay; conditions: for IC50: read-out: HepG2 cytotoxicity assay IC50, dose response confirmation; for Pb ODA (this manuscript) HepG2 cytoxicity: HepG2 cytotoxicity listed with the Pb ODA data set (this manuscript)
Protocol: Briefly, HepG2 cells were seeded onto compound-treated 384 well plates at a density of 2,500 cells per well in Minimal Essential Medium (MEM) plus 10% fetal bovine serum and 1% non-essential amino acids solution (NEAA). Cells were incubated with test compounds or 50 μM doxorubicin (positive) and DSMO (negative) controls at 37°C for 48 h in a humidified 5% CO2 atmosphere. […] Cell viability was then measured in a fluorescent plate reader and percent inhibition calculated with respect to positive and negative controls.

[1] = tested on: P. berghei ookinete development; conditions: for % inhibition, Replicate A / % inhibition, Replicate B: primary screen at 1 μM
[2] = tested on: 3D7-strain P. falciparum asexual parasites; assay: P. falciparum asexual growth inhibition assay (Pf GIA); format: cell-based, Plasmodium falciparum; conditions: dose response confirmation; read-out: Pf asexual growth inhibition assays IC50
Protocol: The asexual activity of active compounds was tested in dose response with parasite lactate dehydrogenase (LDH) activity used as a readout of parasite viability as described in [Gamo et al. (2010)]. Briefly, 3D7-strain P. falciparum asexual parasites were diluted to 0.25% parasitemia, 2% hematocrit in culture medium composed of RPMI medium with 25 mM HEPES, 2% D-sucrose, 0.3% L-glutamine, 150 μM hypoxanthine plus 5% albumax. 25 μl of parasite inoculum was then dispensed into each well of a 384 well plate containing test compounds and positive (50 μM chloroquine) and negative (DMSO) controls. Plates were incubated for 72 h at 37°C in a 5% CO2, 5%O2, 90% N2 environment before being frozen at −70°C. Plates were then thawed and 70 μl of reaction mix (143 mM sodium L-lactate, 143 mM 3-acetyl pyridine adenine dinucleotide, […] Nitro Blue tetrazolium chloride, […] diaphorase (2.83 U/ml), 0.7% Tween 20, 100 mM Tris–HCl pH 8.0) was added to each well using a Multidrop Combi automated dispenser. Plates were shaken to mix and then absorbance at 650 nm was measured after 10 min incubation at room temperature. Percent inhibition of asexual growth was then calculated with respect to positive and negative controls. Data presented is the mean of three independent biological replicates.

[3] = unified HepG2 value across the three screens
[4] = read-out: Pb ODA IC50, this manuscript
[5] = read-out: Pb Ookinete development assay IC50, dose response confirmation
[6] = read-out: Pb ODA (this manuscript) IC50, P. berghei ookinete development assay, this manuscript

Row | Compound | IC50 (HepG2 cells) | Unified cytotox (HepG2 cells; [3]) | Is compound selective in assay? Pb ODA active? ([1]; 1: YES, 0: NO) | % inhibition, Replicate A [1] | % inhibition, Replicate B [1] | IC50 [1, 4] | IC50 [1, 5] | IC50 [2] | Pb ODA (this manuscript) HepG2 cytoxicity (HepG2 cells) | Is compound selective in assay? Pb ODA active? [1] | IC50 [1, 6] | HepG2 cytoxicity (Pb ODA, this manuscript) (HepG2 cells; HepG2, this manuscript) | Unified cytotox (HepG2 cells; HepG2 values of the three screens unified)
1 | O=C(Nc1ccccc1)Nc1ccc(-n2ccc(C(F)(F)F)n2)cc1 [TCMDC-123480] | 100000 nM | 100.00 µM | 1 (1: YES) | 42.19% | 52.26% | 1900 nM | 1900 nM | 419 nM |  |  |  |  | 
2 | O=c1c2c([nH]c3cc(Cl)ccc13)CCCC2 [TCMDC-123504] | 100000 nM |  |  | 114.67% | 120.99% |  | 1240 nM | 824 nM | 100.00 µM | 1 (key: 1: YES; 0: NO) | 1240 nM |  | 
3 | O=C(NCC1CCCCC1)c1cc(=O)c2ccccc2o1 [TCMDC-123621] | 100000 nM | 100.00 µM | 1 (1: YES) | 49.08% | 59.87% |  | 1040 nM | 563 nM |  |  |  |  | 
4 | CC(=O)Nc1cccc(Nc2c3ccccc3nc3ccccc23)c1 [TCMDC-123741] | 12300 nM | 12.30 µM | 1 (1: YES) | 54.87% | 64.71% | 690 nM | 686 nM | 1470 nM |  |  |  |  | 
5 | CSc1ccc(C=CC(=O)NC(=O)c2ccccc2O)cc1 [TCMDC-123758] | 73300 nM | 73.28 µM | 1 (1: YES) | 53.84% | 38.37% | 530 nM | 526 nM | 179 nM |  |  |  |  | 
6 | Cc1cc(C(=O)OCC(=O)Nc2c(C)n(C)n(-c3ccccc3)c2=O)c(C)n1-c1ccc(F)cc1 [TCMDC-123794] | 19500 nM | 19.50 µM | 1 (1: YES) | 88.45% | 92.59% |  | 210 nM | 43 nM |  |  |  |  | 
7 | Cc1nc(/N=C(\N)NC(=O)NC2CCCCC2)nc2ccccc12 [TCMDC-123808] | 35500 nM |  |  | 57.73% | 102.93% |  | 1080 nM | 1.7 nM | 35.48 µM | 1 (key: 1: YES; 0: NO) | 1080 nM |  | 
8 | Cc1cc(NC(c2ccc(Cl)cc2)c2ccc3cccnc3c2O)no1 (stereo not shown) [TCMDC-123828] | 1380 nM | 1.38 µM | 0 (0: NO) | 41.30% | 61.82% | 3020 nM | 3020 nM | 2550 nM |  |  |  |  | 
9 | Cc1sc2ncnc(Sc3nc4ccccc4[nH]3)c2c1C [TCMDC-123835] | 100000 nM | 100.00 µM | 1 (1: YES) | 69.92% | 40.18% | 920 nM | 919 nM | 748 nM |  |  |  |  | 
10 | CCOC(=O)c1c[nH]c2c(ccc3ccccc32)c1=O [TCMDC-123857] | 100000 nM | 100.00 µM | 1 (1: YES) | 88.11% | 83.13% | 560 nM | 562 nM | 443 nM |  |  |  |  | 
11 | Cc1ccc(C2=NNC3(S2)C(=O)N(C)c2ccccc23)cc1 (stereo not shown) [TCMDC-123863] | 56900 nM | 56.89 µM | 1 (1: YES) | 93.73% | 58.53% | 2440 nM | 2440 nM | 3270 nM |  |  |  |  | 
12 | CN(C)c1ccc(C=Cc2nc(=O)c3ccccc3o2)cc1 [TCMDC-123870] | 100000 nM |  |  | 83.52% | 65.62% |  | 155 nM | 41 nM | 100.00 µM | 1 (key: 1: YES; 0: NO) | 150 nM |  | 
13 | O=C(c1cccs1)N1CCN(c2ccc([N+](=O)[O-])c(NC3CC3)c2)CC1 [TCMDC-123877] | 100000 nM | 100.00 µM | 1 (1: YES) | 53.49% | 54.36% | 1700 nM | 1700 nM | 2660 nM |  |  |  |  | 
14 | O=c1nc(C=Cc2ccc(Br)cc2)oc2ccccc12 [TCMDC-123878] | 100000 nM |  |  | 55.97% | 32.93% |  | 2720 nM | 1730 nM | 100.00 µM | 1 (key: 1: YES; 0: NO) | 2720 nM |  | 
15 | Br.CC(CCON1C(N)=NC(N)=NC1(C)C)c1ccc(Cl)c(Cl)c1 (stereo not shown) [TCMDC-123922] | 1 nM |  | 0 (0: NO) | 47.79% | 55.73% | 5760 nM | 5760 nM | < 0.2 nM |  |  |  | 0.001 µM | 0.001 µM
16 | FC(F)(F)c1ccc(Nc2nnnc3ccccc23)cc1 [TCMDC-125603] |  |  |  | 80.24% | 96.04% |  | 1260 nM | 9 nM |  |  |  |  | 
17 | NS(=O)(=O)c1cncc(-c2ccc3nccc(-c4cn[nH]c4)c3n2)c1 [TCMDC-134293] |  |  |  | 59.71% | 54.48% |  | 2160 nM | 283 nM |  |  |  |  | 
18 | Cc1nc(C)c(-c2ccc(Oc3ccc(Cl)cc3Cl)cc2)c(O)c1Br [TCMDC-137533] |  |  |  | 69.44% | 92.36% |  | 203 nM | 165 nM |  |  |  |  | 
19 | COc1ccc2nccc([C@@H](O)CN3CCC(NCc4cc5cccc6c5n(c4=O)CCC6)CC3)c2c1.O=C(O)C(=O)O [TCMDC-140735] | 16200 nM | 16.22 µM | 0 (0: NO) | 13.85% | 52.08% | 3430 nM | 3430 nM |  |  |  |  |  | 
20 | CC(C)(CN)c1nc(-c2ccc(Cl)c(O)c2)c(-c2ccnc(N)n2)[nH]1 [TCMDC-141019] |  |  |  | 10.20% | 56.84% |  | 1720 nM | 863 nM |  |  |  |  | 
